Reference: article PMC7015555, “Transthyretin-Binding Activity of Complex Mixtures Representing the Composition of Thyroid-Hormone Disrupting Contaminants in House Dust and Human Serum” (Environmental Health Perspectives, 2020)
Read-outs that look alike come from different tables or passages of the source.

Columns and labels:
TTR [1] = molecular target: TTR (Homo sapiens, UniProt P02766); assay: FITC-T4 TTR competitive binding assay; conditions: for REP (relative potency compared to T4): IC20 of T4 / IC20 of compound (Equation 14); for IC50: read-out: IC50; for T4EQ concentration (nmol/g dust): reported concentration of the compound in SRM2585 dust x REP; for inhibition of FITC-T4-TTR-binding: present study (Figure 1C)
TTR [2] = conditions: cited from earlier work; for IC50: read-out: IC50 (M), Radioactive Ligand Binding Assay data from the literature; for REP, Radioactive Ligand Binding Assay data from the literature: relative effect potency; for T4-TTR binding inhibition in the RLBA: at 10 µM (highest concentration)
[3] = 20% inhibition of FITC-T4 binding to TTR, 30 nM TTR, 110 nM FITC-T4, 2 h at 4°C, pH 8.0
[4] = individual compounds, 30 nM TTR, 110 nM FITC-T4, 2 h at 4°C, pH 8.0, — = 50% inhibition level not reached (footnote g)
[5] = inhibitor-TTR dissociation constant converted from IC20 (Equation 4), 4°C, read-out: Ki

SMILES | Ki (TTR [1]) [nM] | REP (relative potency compared to T4) (TTR [1]) | IC20 (TTR [1]; pH 8) [nM] | IC50 (TTR [1]) [nM] | IC50 (TTR [2]; ref Weiss et al. 2015) [M] | REP, Radioactive Ligand Binding Assay data from the literature (TTR [2]; ref Weiss et al. 2015) | T4EQ concentration (nmol/g dust) (TTR [1]) | IC20 (TTR [1]; [3]) [nM] | IC50 (TTR [1]; [4]) [nM] | Ki (TTR [1]; [5]) [nM] | REP, Radioactive Ligand Binding Assay data from the literature (TTR [2]; ref Marchesini et al. 2008) | maximum competitive potency at high test concentrations (TTR [1]; Figure 1C) | inhibition of FITC-T4-TTR-binding (TTR [1]) [%] | T4-TTR binding inhibition in the RLBA (TTR [2]; ref Hamers et al. 2006) | T4-TTR binding inhibition in the RLBA (TTR [2]; ref Hamers et al. 2011)
Oc1c(Br)cc(Br)cc1Br [2,4,6-TBP, 2,4,6-tribromophenol] | 5.5 | 2.4 | 8.9 | 29 | 4.8e-09 | 10 |  |  |  |  |  |  |  |  | 
CCCCCCCCCc1ccc(O)cc1 [4-Nonylphenol, 4-nonylphenol] | 3900 | 0.012 | 1800 | 16000 | 1e-05 | 0.008 | 0.946 |  |  |  |  |  |  |  | 
Oc1c(Cl)cc(-c2ccc(Cl)c(Cl)c2)c(Cl)c1Cl [4-OH-CB-107, 4-OH-2,3,3ʹ,4ʹ,5-pentachlorobiphenyl] |  | 0.63 |  |  | 2.26e-08 | 3.5 |  | 34 | 68 | 59 |  |  |  |  | 
Oc1c(Cl)c(Cl)c(-c2cc(Cl)c(Cl)cc2Cl)c(Cl)c1Cl [4-OH-CB-187, 4-OH-2,2ʹ,3,4ʹ,5,5ʹ,6-heptachlorobiphenyl] |  | 2.6 |  |  | 1.98e-08 | 4 |  | 8.2 | 17 | 4 |  |  |  |  | 
Oc1cc(Oc2ccc(Br)cc2Br)c(Br)cc1Br [5-OH-BDE-47, 5-OH-2,2ʹ,4,4ʹ-tetrabromodiphenyl ether] |  | 1.5 |  |  | 2.5e-08 | 3 |  | 14 | 27 | 16 |  |  |  |  | 
Oc1cc(Br)cc(Br)c1Oc1ccc(Br)cc1Br [6-OH-BDE-47, 6-OH-2,2ʹ,4,4ʹ-tetrabromodiphenyl ether] |  | 0.68 |  |  | 1.5e-07 | 0.39 |  | 31 | 98 | 54 |  |  |  |  | 
Oc1cc(Br)cc(Br)c1Oc1cc(Br)c(Br)cc1Br [6ʹ-OH-BDE-99, 6ʹ-OH-2,2ʹ,4,4ʹ,5-pentabromodiphenyl ether] |  | 2.5 |  |  |  |  |  | 8.4 | 20 | 4.5 | 0.2 |  |  |  | 
Brc1ccc(Oc2ccc(Br)cc2Br)c(Br)c1 [BDE-47, 2,2ʹ,4,4ʹ-tetrabromodiphenyl ether] | 440 | 0.10 | 210 | 1300 | 3.6e-05 | 0.0025 | 0.103 |  |  |  |  |  |  |  | 
Brc1ccc(Oc2cc(Br)c(Br)cc2Br)c(Br)c1 [BDE-99, 2,2ʹ,4,4ʹ,5-pentabromodiphenyl ether] | 150 | 0.29 | 73 |  |  |  | 0.458 |  |  |  |  | leveled off before reaching complete inhibition | > 20 | <20% inhibition at 10 µM (Hamers et al. 2006) | 
Clc1ccc(-c2cc(Cl)c(Cl)cc2Cl)cc1Cl [CB-118, 2,3ʹ,4,4ʹ,5-pentachlorobiphenyl] |  | 0.14 | 160 | 560 |  |  | 0.011 |  |  | 320 |  |  | > 20 |  | <20% inhibition at 10 µM (Hamers et al. 2011)
